EC50 data for 27 compounds are collected here from patent US20250195524A1, “PYRIMIDO-PYRIDAZINONE COMPOUND AS TOLL-LIKE RECEPTOR AGONIST” (SHANGHAI VISONPHARMA CO., LTD., priority 2022, published 2025).

By pEC50 is commonly meant −log10 of the EC50, conventionally taken in molar units. Low values mean a large EC50, high ones a small EC50.

pEC50: −log10 of the molar value.

This experiment concerns the target T1, human TLR8 (Homo sapiens, UniProt Q9NR97).
T1 construct: host or cells: HEK-Blue hTLR8 (HEK293-derived reporter cells)
T1 sequence (Q9NR97 27-1041): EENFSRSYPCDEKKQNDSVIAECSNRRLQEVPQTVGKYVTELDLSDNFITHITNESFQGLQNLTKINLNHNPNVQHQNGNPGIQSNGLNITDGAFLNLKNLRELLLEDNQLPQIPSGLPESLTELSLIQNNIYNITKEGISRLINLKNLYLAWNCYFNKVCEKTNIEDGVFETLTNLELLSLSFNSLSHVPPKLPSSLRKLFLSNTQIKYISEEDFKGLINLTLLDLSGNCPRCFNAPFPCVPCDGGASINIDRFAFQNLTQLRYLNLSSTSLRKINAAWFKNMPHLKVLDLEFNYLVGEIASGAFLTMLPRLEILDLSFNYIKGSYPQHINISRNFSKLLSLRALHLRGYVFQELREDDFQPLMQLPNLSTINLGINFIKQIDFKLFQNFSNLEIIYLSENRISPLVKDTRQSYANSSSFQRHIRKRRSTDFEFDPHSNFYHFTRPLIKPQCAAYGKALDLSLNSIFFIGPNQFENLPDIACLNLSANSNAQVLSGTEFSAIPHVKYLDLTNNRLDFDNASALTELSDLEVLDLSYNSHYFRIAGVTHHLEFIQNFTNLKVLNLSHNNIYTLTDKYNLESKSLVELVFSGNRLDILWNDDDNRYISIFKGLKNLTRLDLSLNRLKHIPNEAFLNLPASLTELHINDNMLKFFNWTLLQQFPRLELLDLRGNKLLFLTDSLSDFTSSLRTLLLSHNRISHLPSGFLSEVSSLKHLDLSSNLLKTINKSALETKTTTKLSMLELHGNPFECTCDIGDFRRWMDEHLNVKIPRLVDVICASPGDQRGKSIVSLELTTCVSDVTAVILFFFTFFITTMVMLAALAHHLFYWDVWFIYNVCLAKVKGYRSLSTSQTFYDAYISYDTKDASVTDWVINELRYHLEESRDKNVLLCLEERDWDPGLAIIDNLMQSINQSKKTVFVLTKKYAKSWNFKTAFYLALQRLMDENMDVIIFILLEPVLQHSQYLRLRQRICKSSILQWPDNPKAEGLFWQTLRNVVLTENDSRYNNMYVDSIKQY
As to the kind of experiment: HEK-Blue hTLR8 SEAP reporter gene agonism assay. The experiment is classed as cell-based. Conditions: HEK-Blue hTLR8 cells, SEAP (Quanti-blue, 650 nm), 16-22 hours incubation. The protocol: The agonistic activity of the compounds of the present invention on TLR7 or TLR8 was evaluated using HEK-Blue™ cells stably expressing human TLR7 or TLR8. And the agonistic activity was assayed using their ability to induce the SEAP reporter gene under the control of the IFN-β minimal promoter fused to five NF-κB and ap-1 binding sites, specifically as follows:
HEK-Blue™ hTLR7 (Invivogen, 80,000 cells per well) or HEK-Blue™ hTLR8 (Invivogen, 60,000 cells per well) was added to a 96-well cell culture plate, the compound to be tested is added whereafter, and the final concentration of the compound(s) to be tested in the medium ranged from 0.001 to 36 μM, then incubated for 16-22 hours. SEAP levels in the cell culture medium were detected using HEK-Blue assay reagent Quanti-blue (Invivogen) according to the manufacturer's instructions. Neo2 Multifunctional Enzyme Labeler (Bio-tek) was used to determine the light absorption at 650 nm. GraphPad Prism was utilized to calculate the EC50, which is the half effective concentration of the drug.

Compound `CCCC(C)Nc1nc(N)nc2cnn(Cc3ccc(CN4CCCC4)cc3)c(=O)c12` (stereo not drawn) [Compound I-1, 2-amino-4-(pentan-2-ylamino)-6-(4-(pyrrolidin-1-ylmethyl)benzyl)pyrimido[4,5-d]pyridazin-5(6H)-one] gave a pEC50 of 6.97.
The same measure for `CCCCNc1nc(N)nc2cnn(Cc3ccc(C(=O)N4CCNCC4)cc3)c(=O)c12` [Compound I-2, 2-amino-4-(butylamino)-6-(4-(piperazine-1-carbonyl)benzyl)pyrimido[4,5-d]pyridazin-5(6H)-one]: 6.99.
In turn, `CCCCNc1nc(N)nc2cnn(Cc3ccc(C(=O)N4CCN(C)CC4)cc3)c(=O)c12` [Compound I-3, 2-amino-4-(butylamino)-6-(4-(4-methylpiperazine-1-carbonyl)benzyl)pyrimido[4,5-d]pyridazin-5(6H)-one] gave a pEC50 of 6.21.
Under `COCCNc1nc(N)nc2cnn(Cc3ccc(CN4CCCC4)cc3)c(=O)c12` [Compound I-4, 2-amino-4-((2-methoxyethyl)amino)-6-(4-(pyrrolidin-1-ylmethyl)benzyl)pyrimido[4,5-d]pyridazin-5(6H)-one] stands 6.39; under `CCCCNc1nc(N)nc2cnn(Cc3ccc(CN4CCCC4)cc3)c(=O)c12` [Compound I-5, 2-amino-4-(butylamino)-6-(4-(pyrrolidin-1-ylmethyl)benzyl)pyrimido[4,5-d]pyridazin-5(6H)-one], 6.83; under `CCCCNc1nc(N)nc2cnn(Cc3ccc(CN(C)C)cc3)c(=O)c12` [Compound I-7, 2-amino-4-(butylamino)-6-(4-((dimethylamino)methyl)benzyl)pyrimido[4,5-d]pyridazin-5(6H)-one], 6.82.
Under `CCCCNc1nc(N)nc2cnn(Cc3ccc4c(c3)CCNC4)c(=O)c12` [Compound I-8, 2-amino-4-(butylamino)-6-((1,2,3,4-tetrahydroisoquinolin-6-yl)methyl)pyrimido[4,5-d]pyridazin-5(6H)-one] stands 6.64; under `CCCCNc1nc(N)nc2cnn(Cc3ccc(CN4CCNCC4)cc3)c(=O)c12` [Compound I-9, 2-amino-4-(butylamino)-6-(4-(piperazin-1-ylmethyl)benzyl)pyrimido[4,5-d]pyridazin-5(6H)-one], 6.74.
The same measure for `CCCCNc1nc(N)nc2cnn(Cc3ccc(CNC4CC4)cc3)c(=O)c12` [Compound I-10, 2-amino-4-(butylamino)-6-(4-((cyclopropylamino)methyl)benzyl)pyrimido[4,5-d]pyridazin-5(6H)-one]: 6.24; for `CCCCNc1nc(N)nc2cnn(Cc3ccc(CN4CC5CC(C4)N5)cc3)c(=O)c12` [Compound I-11, 6-(4-((3,6-Diazabicyclo[3.1.1]heptan-3-yl)methyl)benzyl)-2-amino-4-(butylamino)pyrimido[4,5-d]pyridazin-5(6H)-one]: 6.57; for `CCCCNc1nc(N)nc2cnn(Cc3ccc(CN4CCC5(CNC5)C4)cc3)c(=O)c12` [Compound I-12, 6-(4-((2,6-Diazaspiro[3.4]octan-6-yl)methyl)benzyl)-2-amino-4-(butylamino)pyrimido[4,5-d]pyridazin-5(6H)-one]: 6.73.
Compound `CCCCNc1nc(N)nc2cnn(Cc3ccc4c(c3)CCN(C(C)C)C4)c(=O)c12` [Compound I-13, 2-amino-4-(butylamino)-6-((2-isopropyl-1,2,3,4-tetrahydroisoquinolin-6-yl)methyl)pyrimido[4,5-d]pyridazin-5(6H)-one] showed a pEC50 of 6.26.
The same measure for `CCCCNc1nc(N)nc2cnn(Cc3ccc(CN4CCCC4)cc3OC)c(=O)c12` [Compound I-14, 2-amino-4-(butylamino)-6-(2-methoxy-4-(pyrrolidin-1-ylmethyl)benzyl)pyrimido[4,5-d]pyridazin-5(6H)-one]: 6.44; for `CCCCNc1nc(N)nc2cnn(Cc3ccc(CN4CCCC4)cc3F)c(=O)c12` [Compound I-15, 2-amino-4-(butylamino)-6-(2-fluoro-4-(pyrrolidin-1-ylmethyl)benzyl)pyrimido[4,5-d]pyridazin-5(6H)-one]: 6.49; for `CCCCNc1nc(N)nc2cnn(Cc3ccc(CN4CCCC4)nc3OC)c(=O)c12` [Compound I-16, 2-amino-4-(butylamino)-6-((2-methoxy-6-(pyrrolidin-1-ylmethyl)pyridin-3-yl)methyl)pyrimido[4,5-d]pyridazin-5(6H)-one]: 6.45.
Under `CCCCNc1nc(N)nc2cnn(Cc3ccc(CN4CCCC4)c(OC)c3)c(=O)c12` [Compound I-17, 2-amino-4-(butylamino)-6-(3-methoxy-4-(pyrrolidin-1-ylmethyl)benzyl)pyrimido[4,5-d]pyridazin-5(6H)-one] stands 6.43.
Under `CCCCNc1nc(N)nc2cnn(Cc3ccc(CN4CCCC4)c(F)c3)c(=O)c12` [Compound I-18, 2-amino-4-(butylamino)-6-(3-fluoro-4-(pyrrolidin-1-ylmethyl)benzyl)pyrimido[4,5-d]pyridazin-5(6H)-one] stands 6.66.
`CCCCNc1nc(N)nc2cnn(Cc3ccc(CN(CCC)CCO)cc3)c(=O)c12` [Compound I-21] had a pEC50 of 6.41.
The same measure for `CCCCNc1nc(N)nc2cnn(Cc3ccc(CN(CCO)CCO)cc3)c(=O)c12` [Compound I-23, 2-amino-6-(4-((bis(2-hydroxyethyl)amino)methyl)benzyl)-4-(butylamino)pyrimido[4,5-d]pyridazin-5(6H)-one]: 6.65; for `CCC[C@@H](C)Nc1nc(N)nc2cnn(Cc3ccc(CN(CCC)CCO)cc3)c(=O)c12` [Compound I-26]: 6.49; for `CCC[C@@H](C)Nc1nc(N)nc2cnn(Cc3ccc(CN(CCO)CCO)cc3)c(=O)c12` [Compound I-27, (R)-2-amino-6-(4-((bis(2-hydroxyethyl)amino)methyl)benzyl)-4-(pentan-2-ylamino)pyrimido[4,5-d]pyridazin-5(6H)-one]: 6.54.
Under `CCC[C@@H](C)Nc1nc(N)nc2cnn(Cc3ccc(CN4CC5(COC5)C4)cc3)c(=O)c12` [Compound I-41, (R)-6-(4-((2-oxo-6-azaspiro[3.3]heptan-6-yl)methyl)benzyl)-2-amino-4-(pentan-2-ylamino)pyrimido[4,5-d]pyridazin-5(6H)-one] stands 7.00.
The same measure for `CCC[C@@H](C)Nc1nc(N)nc2cnn(Cc3ccc(CNCCO)cc3)c(=O)c12` [Compound I-42]: 7.13; for `CCC[C@@H](C)Nc1nc(N)nc2cnn(Cc3ccc(CN4CC5(COC5)C4)cc3OC)c(=O)c12` [Compound I-43, (R)-6-(4-((2-oxo-6-azaspiro[3.3]heptan-6-yl)methyl)-2-methoxybenzyl)-2-amino-4-(pentan-2-ylamino)pyrimido[4,5-d]pyridazin-5(6H)-one]: 6.63; for `CCC[C@@H](C)Nc1nc(N)nc2cnn(Cc3ccc(CNCCO)cc3OC)c(=O)c12` [Compound I-44]: 6.95.
The compound `CCC[C@@H](C)Nc1nc(N)nc2cnn(Cc3ccc(C4CCNCC4)cc3)c(=O)c12` [Compound I-55, (R)-2-amino-4-(pentan-2-ylamino)-6-(4-(piperidin-4-yl)benzyl)pyrimido[4,5-d]pyridazin-5(6H)-one] had a negative logarithm of the EC50 (pEC50) of 6.77.
`CCC[C@@H](C)Nc1nc(N)nc2cnn(Cc3ccc(C(=O)N4CCNCC4)cc3)c(=O)c12` [Compound I-56, (R)-2-amino-4-(pentan-2-ylamino)-6-(4-(piperazine-1-carbonyl)benzyl)pyrimido[4,5-d]pyridazin-5(6H)-one] gave a pEC50 of 7.15.
